What was measured:
Columbia SK virus = experiment: Antiviral effects against an interferon-sensitive virus, Columbia SK; assay type: in vivo, Taconic Farms male, white mice; settings: 400 mg/kg oral, 18 hours before infection; 14 days post injection
Experimental: Taconic Farms male, white mice, weighing 18-24 g were treated by gavage, 18 hours before infection with a test compound suspended or dissolved in 1.0 ml of 0.2% aqueous agar solution. The mice were then infected by subcutaneous injection with one LD95 of Columbia SK virus in 0.2 ml of distilled water. Groups of infected, untreated mice were used as controls to show the lethality of the infection. The test duration was 14 days.

[1] = tested on: Rauscher Virus-Induced Leukemia; experiment: Inhibition of splenomegaly in mice with Rauscher virus-induced leukemia; assay type: in vivo, Balb/c mice
[2] = tested on: Rauscher Virus-Induced Leukemia; experiment: Restoration of antibody formation in mice with Rauscher virus-induced leukemia; assay type: in vivo, Balb/c mice; settings: 100 mg/kg IP
Lewis lung carcinoma = experiment: Surgical-adjuvant antitumor activity against Lewis lung carcinoma implanted subcutaneously in footpads; assay type: in vivo, BDF1 mice; settings: for Average % of tumor weight inhibition / Average tumor weight: Day +11; for No. Survivors/No. Treated: at +90 days; for % Increased life-span: + significant (≥25%)
Experimental: BDF1 mice were inoculated subcutaneously in the right hind footpad with 5×10^5 viable Lewis Lung carcinoma cells, on day zero. […] A control group of mice received a saline placebo instead of drug, and another group of tumor bearing mice received the positive control drug cyclophosphamide, at 100 mg/kg, administered by intraperitoneal injection. On the 11th day after tumor implantation, the mice were anesthesized with Nembutal, and the tumor bearing feet surgically amputated above the ankle joint. The surgical incision was swabbed with alcohol and sealed with stainless steel wound clips. The tumor bearing feet were individually weighed and the average weight of a normal foot (determined by weighing amputated feet from non-tumor bearing mice of the same age, sex and body weight) was subtracted to obtain the weight of tumor tissue in the amputated foot. Mice were then observed for deaths until the 90th day after tumor implantation. […]
^1 BDF1 male mice inoculated subcutaneously in footpad with 5
× 10^5 Lewis lung tumor cells on day zero;
3,6bis(2-diethylaminoethoxy)acridine trihydrochloride administered orally
and Cyclophosphamide intraperitoneally, on days 1, 7, and 13 following
^2 Average tumor weight determined after surgical amputation of tumor
bearing foot on day 11 following tumor implantation.

B-16 melanoma = experiment: Potentiation of cyclophosphamide (Cytoxan) activity against B16 melanoma in mice; assay type: in vivo, BDF1 mice
Experimental: BDF1 male mice were inoculated subcutaneously with 0.25 ml. of a 10% B-16 melanoma homogenate. Cyclophosphamide was administered intraperitoneally at 80 mg./kg. the second day following the day of tumor implantation. Test compounds were given intraperitoneally on days +6, +8 and +10 relative to tumor implantation. […]
BDF1 male mice inoculated subcutaneously with 0.25 ml. of a 10% tumo
homogenate on day 0. Drugs were administered intraperitoneally;
cyclophosphoamide on day 2, 3,6bis(2-diethylaminoethoxy)acridine
trihydrochloride on days 6, 8 and 10.
^1 Number of survivors over number of mice treated.

[3] = 25 mg/kg i.p. + cyclophosphamide 80 mg/kg
[4] = 25 mg/kg i.p. + cyclophosphamide 80 mg/kg, day 21
[5] = 50 mg/kg i.p. + cyclophosphamide 80 mg/kg
[6] = 50 mg/kg i.p. + cyclophosphamide 80 mg/kg, day 21

CCN(CC)CCOc1ccc2cc3ccc(OCCN(CC)CC)cc3nc2c1.Cl.Cl.Cl
Survivors/Total (Columbia SK virus): 10/15
% Reduction in splenomegaly ([1]; 50 mg/kg): 68%
% Reduction in splenomegaly ([1]; 100 mg/kg): 71%
Serum hemagglutinin titer/saline control titer [2]: 512/32
Median survival time (Lewis lung carcinoma; 50 mg/kg oral): > 90.0 days
Average % of tumor weight inhibition (Lewis lung carcinoma; 50 mg/kg oral): 38%
Average tumor weight (Lewis lung carcinoma; 50 mg/kg oral): 236 mg
No. Survivors/No. Treated (Lewis lung carcinoma; 50 mg/kg oral): 8/12
% Increased life-span (Lewis lung carcinoma; 50 mg/kg oral): > 200%
Median survival time (Lewis lung carcinoma; 100 mg/kg oral): > 90.0 days
Average % of tumor weight inhibition (Lewis lung carcinoma; 100 mg/kg oral): 46%
Average tumor weight (Lewis lung carcinoma; 100 mg/kg oral): 203 mg
No. Survivors/No. Treated (Lewis lung carcinoma; 100 mg/kg oral, ** p < .05): 9/12
% Increased life-span (Lewis lung carcinoma; 100 mg/kg oral): > 200%
Median survival time (Lewis lung carcinoma; 200 mg/kg oral): > 90.0 days
Average tumor weight (Lewis lung carcinoma; 200 mg/kg oral): 38 mg
Average % of tumor weight inhibition (Lewis lung carcinoma; 200 mg/kg oral, * significant (≥58%)): 90%
No. Survivors/No. Treated (Lewis lung carcinoma; 200 mg/kg oral, ** p < .05): 12/12
% Increased life-span (Lewis lung carcinoma; 200 mg/kg oral): > 200%
Median survival time (Lewis lung carcinoma; 300 mg/kg oral): > 90.0 days
Average tumor weight (Lewis lung carcinoma; 300 mg/kg oral): 56 mg
Average % of tumor weight inhibition (Lewis lung carcinoma; 300 mg/kg oral, * significant (≥58%)): 85%
No. Survivors/No. Treated (Lewis lung carcinoma; 300 mg/kg oral, ** p < .05): 10/12
% Increased life-span (Lewis lung carcinoma; 300 mg/kg oral): > 200%
Median survival time (Lewis lung carcinoma; 400 mg/kg oral): > 90.0 days
Average tumor weight (Lewis lung carcinoma; 400 mg/kg oral): 17 mg
Average % of tumor weight inhibition (Lewis lung carcinoma; 400 mg/kg oral, * significant (≥58%)): 96%
No. Survivors/No. Treated (Lewis lung carcinoma; 400 mg/kg oral, ** p < .05): 10/12
% Increased life-span (Lewis lung carcinoma; 400 mg/kg oral): > 200%
ILS (Percent increase in life span over control) (B-16 melanoma; [3]): 31%
MST (Median Survival Time) (B-16 melanoma; [3]): 29.5 days
Average tumor weight (B-16 melanoma; [4]): 2029 mg
Number of survivors over number of mice treated (B-16 melanoma; [4]): 8/8
Number of survivors over number of mice treated (B-16 melanoma; 25 mg/kg i.p. + cyclophosphamide 80 mg/kg, day 26): 6/8
Average tumor weight (B-16 melanoma; 25 mg/kg i.p. + cyclophosphamide 80 mg/kg, day 26, p <0.05 vs cyclophosphamide alone and vs either drug alone): 3125 mg
ILS (Percent increase in life span over control) (B-16 melanoma; 25 mg/kg i.p. alone): 27%
MST (Median Survival Time) (B-16 melanoma; 25 mg/kg i.p. alone): 28.5 days
Average tumor weight (B-16 melanoma; 25 mg/kg i.p. alone, day 21): 2625 mg
Number of survivors over number of mice treated (B-16 melanoma; 25 mg/kg i.p. alone, day 21): 7/8
Number of survivors over number of mice treated (B-16 melanoma; 25 mg/kg i.p. alone, day 26): 5/8
Average tumor weight (B-16 melanoma; 25 mg/kg i.p. alone, day 26, p <0.05 vs untreated): 6303 mg
ILS (Percent increase in life span over control) (B-16 melanoma; [5]): 27%
MST (Median Survival Time) (B-16 melanoma; [5]): 28.5 days
Average tumor weight (B-16 melanoma; [6]): 2041 mg
Number of survivors over number of mice treated (B-16 melanoma; [6]): 8/8
Number of survivors over number of mice treated (B-16 melanoma; 50 mg/kg i.p. + cyclophosphamide 80 mg/kg, day 26): 7/8

From patent US4314061A, “Certain 3,6-bis-(heteroaminoalkoxy) acridines” (priority 1980, dated 1982)
